Drawing on patent US9169205B2, “Pyrrolidine derivatives, pharmaceutical compositions and uses thereof” (Boehringer Ingelheim International GmbH, priority 2012, dated 2015), this text covers IC50 for 48 compounds.

In this experiment the target is human ACC2 (Homo sapiens (Human), UniProt O00763). In words: ACC2 assay (spectrophotometric 384 well assay, NADH-linked kinetic method). The settings on record: hACC2 construct lacking 128 N-terminal amino acids, 25° C., 340 nm. The format is biochemical. Here is the method: Spectrophotometric 384 Well Assay
Chain of human ACC2 (O00763 129-2458): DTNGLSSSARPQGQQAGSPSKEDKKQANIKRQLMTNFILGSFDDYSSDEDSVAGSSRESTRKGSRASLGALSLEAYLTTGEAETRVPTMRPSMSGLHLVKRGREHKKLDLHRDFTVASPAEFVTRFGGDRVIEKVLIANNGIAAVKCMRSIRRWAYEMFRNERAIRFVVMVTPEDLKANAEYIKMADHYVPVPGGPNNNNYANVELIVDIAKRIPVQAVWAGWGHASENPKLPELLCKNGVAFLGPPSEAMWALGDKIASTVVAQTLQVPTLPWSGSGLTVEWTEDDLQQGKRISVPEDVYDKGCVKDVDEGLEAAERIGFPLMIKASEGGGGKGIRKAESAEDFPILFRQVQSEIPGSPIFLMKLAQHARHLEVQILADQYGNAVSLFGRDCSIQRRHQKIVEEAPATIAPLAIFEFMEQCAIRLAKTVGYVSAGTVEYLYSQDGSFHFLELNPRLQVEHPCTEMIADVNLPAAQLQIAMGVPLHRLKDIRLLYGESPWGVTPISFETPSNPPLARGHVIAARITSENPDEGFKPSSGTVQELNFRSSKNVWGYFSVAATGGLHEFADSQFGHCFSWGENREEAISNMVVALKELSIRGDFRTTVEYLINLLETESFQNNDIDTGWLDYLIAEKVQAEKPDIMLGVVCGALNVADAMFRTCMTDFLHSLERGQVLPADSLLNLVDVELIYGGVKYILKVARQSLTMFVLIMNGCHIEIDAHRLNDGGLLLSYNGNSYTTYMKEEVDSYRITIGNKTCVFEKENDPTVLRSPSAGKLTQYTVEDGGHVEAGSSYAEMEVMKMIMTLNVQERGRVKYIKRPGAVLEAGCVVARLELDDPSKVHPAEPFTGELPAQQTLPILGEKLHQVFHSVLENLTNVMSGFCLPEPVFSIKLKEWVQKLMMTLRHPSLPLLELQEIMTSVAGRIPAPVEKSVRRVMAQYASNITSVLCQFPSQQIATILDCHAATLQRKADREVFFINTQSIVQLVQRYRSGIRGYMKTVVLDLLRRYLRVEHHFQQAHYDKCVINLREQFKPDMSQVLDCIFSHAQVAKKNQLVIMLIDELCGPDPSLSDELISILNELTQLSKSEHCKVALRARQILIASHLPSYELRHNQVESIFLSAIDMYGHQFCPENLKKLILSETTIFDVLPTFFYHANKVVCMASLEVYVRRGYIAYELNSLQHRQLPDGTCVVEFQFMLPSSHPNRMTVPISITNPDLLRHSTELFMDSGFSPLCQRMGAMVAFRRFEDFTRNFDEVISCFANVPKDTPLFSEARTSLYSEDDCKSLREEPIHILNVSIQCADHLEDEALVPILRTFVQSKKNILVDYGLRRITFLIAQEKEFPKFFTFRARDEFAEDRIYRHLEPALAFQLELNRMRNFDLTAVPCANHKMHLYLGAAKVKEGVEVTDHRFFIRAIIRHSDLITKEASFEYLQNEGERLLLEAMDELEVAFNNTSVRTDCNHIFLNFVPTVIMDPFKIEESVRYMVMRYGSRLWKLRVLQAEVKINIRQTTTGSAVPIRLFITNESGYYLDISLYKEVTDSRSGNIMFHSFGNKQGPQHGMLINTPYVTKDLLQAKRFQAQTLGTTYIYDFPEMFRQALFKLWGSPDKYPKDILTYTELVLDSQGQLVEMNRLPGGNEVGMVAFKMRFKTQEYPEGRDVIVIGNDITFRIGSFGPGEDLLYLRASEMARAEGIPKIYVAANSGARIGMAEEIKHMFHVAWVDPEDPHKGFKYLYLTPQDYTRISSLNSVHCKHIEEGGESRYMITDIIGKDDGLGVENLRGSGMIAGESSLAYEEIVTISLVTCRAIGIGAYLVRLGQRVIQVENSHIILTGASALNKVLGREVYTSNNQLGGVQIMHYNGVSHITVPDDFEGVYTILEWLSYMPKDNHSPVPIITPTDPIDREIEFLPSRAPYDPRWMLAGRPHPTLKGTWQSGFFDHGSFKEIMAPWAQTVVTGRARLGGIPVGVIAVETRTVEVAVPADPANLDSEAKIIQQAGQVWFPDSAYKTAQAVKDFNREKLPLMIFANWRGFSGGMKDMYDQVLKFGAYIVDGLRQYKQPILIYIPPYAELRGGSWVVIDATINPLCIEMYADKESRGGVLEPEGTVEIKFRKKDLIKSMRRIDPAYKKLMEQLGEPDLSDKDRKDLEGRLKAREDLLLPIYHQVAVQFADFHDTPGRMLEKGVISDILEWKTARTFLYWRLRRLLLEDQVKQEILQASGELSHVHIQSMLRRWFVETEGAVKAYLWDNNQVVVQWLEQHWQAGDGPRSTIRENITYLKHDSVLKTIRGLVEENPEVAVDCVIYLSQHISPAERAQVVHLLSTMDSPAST
Malonyl CoA formation by acetyl CoA carboxylases is stoichometrically linked to the consumption of ATP. ACC2 activity is measured in a NADH-linked kinetic method measuring ADP generated during the ACC reaction using a coupled lactate dehydrogenase/pyruvate kinase reaction.
The protein is then expressed in insect cells using a baculoviral expression system. Protein purification is performed by anion exchange.
All compounds are dissolved in dimethyl sulfoxide (DMSO) to a concentration of 10 mM.
The enzymatic reaction is then started by addition of a mixture of NADH, acetyl Coenzyme A (both 200 μM f.c.) and ATP (500 uM f.c.). The decrease of the optical density (slope S) is then determined at 25° C. at a wavelength of 340 nm over 15 minutes in a spectrophotometric reader.
Each assay microtiter plate contains wells with vehicle instead of compound as controls for the non-inhibited enzyme (100% CTL; ‘HIGH’) and wells without acetyl-CoA as controls for non-specific NADH degradation (0% CTL; ‘LOW’).
For the compound `CC(=O)N[C@@H](C)c1ccc(OC2CCN(c3ccc4c(c3C)OCCO4)C2)cc1` (stereo partly drawn) [Example 1.83], the half-maximal inhibitory concentration (IC50) worked out at 350 nM. As to `CC(=O)N[C@@H](C)c1ccc(OC2CCN(c3ccc(OC4CC4)cc3C#N)C2)cc1` (stereo partly drawn) [Example 1.73], half-maximal inhibition (IC50) required 230 nM. For the compound `C[C@H](NC(=O)C1(C#N)CC1)c1ccc(O[C@@H]2CCN(c3ccc(OCC4CC4)cc3)C2)cc1` [Example 2.35], the IC50 amounted to 273 nM. Take `C[C@H](NC(=O)c1ccno1)c1ccc(O[C@@H]2CCN(c3ccc(OCC4CC4)cc3)C2)cc1` [Example 8.3]: the IC50 was 61 nM. Consider `C[C@H](NC(=O)Nc1ccon1)c1ccc(OC2CCN(c3ccc(OCC4CC4)cc3)C2)cc1` (stereo partly drawn) [Example 3.7], for which the IC50 was 56 nM. In turn, `CC(=O)N[C@@H](C)c1ccc(OC2CCN(c3ccc(OC(C)C)cc3)C2)cc1` (stereo partly drawn) [Example 1.15] yielded an IC50 of 214 nM.

In turn, `C[C@H](NC(=O)C1CC1)c1ccc(O[C@@H]2CCN(c3ccc(OCC4CC4)cc3)C2)cc1` [Example 8.1, N—((S)-1-(4-((R)-1-(4-(Cyclopropylmethoxy)phenyl)pyrrolidin-3-yloxy)phenyl)-ethyl)-cyclopropanecarboxamide] showed a 50% inhibitory concentration (IC50) of 373 nM. Under `CC(=O)N[C@@H](C)c1ccc(OC2CCN(c3ccc(OC4CC4)cc3)C2)cc1` (stereo partly drawn) [Example 1.6] stands 108 nM; under `CO[C@H]1CN(c2ccc(OCC3CC3)cc2)CC1Oc1ccc([C@H](C)NC(C)=O)cc1` (stereo partly drawn) [Example 1.45], 108 nM; under `CC(=O)N[C@@H](C)c1ccc(OC2CCN(c3ccc(C4CCC4)cc3)C2)cc1` (stereo partly drawn) [Example 1.33], 125 nM. Under `COc1ccc(N2CCC(Oc3ccc([C@H](C)NC(C)=O)cc3)C2)cc1` (stereo partly drawn) [Example 1.24] stands 589 nM.

Regarding `CC(=O)N[C@@H](C)c1ccc(OC2CCN(c3ccc(OCC(F)F)cc3)C2)cc1` (stereo partly drawn) [Example 4.6], it took 360 nM to reach half-maximal inhibition (IC50).

Turning to `C[C@H](NC(=O)c1cn(C)nc1C#N)c1ccc(O[C@@H]2CCN(c3ccc(OCC4CC4)cc3)C2)cc1` [Example 2.56], the half-maximal inhibitory concentration (IC50) was found to be 417 nM. The same measure for `CCC(=O)N[C@@H](C)c1ccc(O[C@@H]2CCN(c3ccc(OCC4CC4)cc3)C2)cc1` [Example 2.24]: 40 nM; for `CC(=O)N[C@@H](C)c1ccc(O[C@H]2CCN(c3ccc(OC4CC4)cc3)C2)cc1` [Example 1.49]: 775 nM. The same measure for `CC(=O)N[C@@H](C)c1ccc(OC2CCN(c3ccc(OCC4CCCO4)cc3)C2)cc1` (stereo partly drawn) [Example 1.21]: 573 nM; for `CCOc1ccc(N2CC[C@@H](Oc3ccc([C@H](C)NC(=O)c4sc(NC(=O)COC(C)=O)nc4C)cc3)C2)cc1` [Example 2.55]: 53 nM; for `CC(=O)N[C@@H](C)c1ccc(OC2CCN(c3ccc(OCC4CC4(F)F)cc3)C2)cc1` (stereo partly drawn) [Example 1.16]: 25 nM. Under `CC(=O)N[C@@H](C)c1ccc(OC2CCN(c3ccc4c(c3F)OCCO4)C2)cc1` (stereo partly drawn) [Example 1.47] stands 339 nM; under `CC(=O)N[C@@H](C)c1ccc(OC2CCN(c3cc(Cl)ccc3Cl)C2)cc1` (stereo partly drawn) [Example 1.58], 354 nM; under `CC(=O)NC(C)c1ccc(OC2CCN(c3ccc(OCC4CC4)cc3)C2)cc1F` (stereo not drawn) [Example 7.2], 762 nM. Compound `CCOc1ccc(N2CCC(Oc3ccc([C@H](C)NC(C)=O)cc3)C2)cc1F` (stereo partly drawn) [Example 1.99] gave an IC50 of 383 nM. Under `Cc1cc(OC2CC2)ccc1N1CC[C@@H](Oc2ccc([C@H](C)NC(=O)c3cnco3)cc2)C1` [Example 2.61] stands 397 nM. The same measure for `COCCOc1ccc(N2CCC(Oc3ccc([C@H](C)NC(C)=O)cc3)C2)cc1` (stereo partly drawn) [Example 4.4]: 560 nM. The same measure for `CC(=O)N[C@@H](C)c1ccc(OC2CCN(c3ccccc3)C2)cc1` (stereo partly drawn) [Example 1.44]: 435 nM; for `CCCOc1ccc(N2CCC(Oc3ccc([C@H](C)NC(C)=O)cc3)C2)c(C)c1` (stereo partly drawn) [Example 1.86]: 65 nM. `COc1cc(C(=O)N[C@@H](C)c2ccc(O[C@@H]3CCN(c4ccc(OCC5CC5)cc4)C3)cc2)on1` [Example 2.17] yielded an IC50 of 346 nM. Under `CC(=O)N[C@@H](C)c1ccc(OC2CCN(c3cccc(C(F)F)c3)C2)cc1` (stereo partly drawn) [Example 1.95] stands 166 nM; under `C[C@H](NC(=O)CO)c1ccc(O[C@@H]2CCN(c3ccc(OCC4CC4)cc3)C2)cc1` [Example 2.29], 400 nM. `COc1cc(OC2CC2)ccc1N1CCC(Oc2ccc([C@H](C)NC(C)=O)cc2)C1` (stereo partly drawn) [Example 1.43] came in with a half-inhibitory concentration (IC50) of 274 nM.

For `CC(=O)N[C@@H](C)c1ccc(OC2CCN(c3ccc(OCC4CC4)c(F)c3)C2)cc1` (stereo partly drawn) [Example 1.100], the IC50 was 87 nM. The compound `CC(=O)Nc1cc(C(=O)N[C@@H](C)c2ccc(OC3CCN(c4ccc(OCC5CC5)cc4)C3)cc2)on1` (stereo partly drawn) [Example 8.2] came in with an IC50 of 365 nM. The same measure for `CC(C)Oc1ccc(N2CCC(Oc3ccc([C@H](C)NC(=O)N(C)C)cc3)C2)cc1` (stereo partly drawn) [Example 1.65]: 875 nM; for `CC(=O)N[C@@H](C)c1ccc(OC2CCN(c3cc4c(cc3F)OCCCO4)C2)cc1` (stereo partly drawn) [Example 1.36]: 97 nM; for `CC(=O)N[C@@H](C)c1ccc(OC2CCN(c3cc4c(cc3C#N)OCCO4)C2)cc1` (stereo partly drawn) [Example 1.82]: 1480 nM.

On to `CCOc1cccc(N2CC[C@H](Oc3ccc([C@H](C)NC(C)=O)cc3)C2)c1` [Example 1.4], for which the IC50 was determined as 514 nM.

`CCC(=O)N[C@@H](C)c1ccc(O[C@@H]2CCN(c3ccc(OC(C)C)cc3)C2)cc1` [Example 2.20]: half-maximal inhibition (IC50) was put at 774 nM. As to `CCNC(=O)N[C@@H](C)c1ccc(OC2CCN(c3ccc(OC(C)C)cc3)C2)cc1` (stereo partly drawn) [Example 3.10], the IC50 turned out to be 218 nM.

As to `C[C@H](NC(=O)c1cnn2ccn(C)c12)c1ccc(O[C@@H]2CCN(c3ccc(OCC4CC4)cc3)C2)cc1` [Example 2.49], half-maximal inhibition (IC50) required 885 nM. Under `CC(=O)N[C@@H](C)c1ccc(OC2CCN(c3ccc4c(c3F)OCO4)C2)cc1` (stereo partly drawn) [Example 1.72] stands 558 nM.

The compound `C[C@H](NC(=O)c1ccns1)c1ccc(O[C@@H]2CCN(c3ccc(OCC4CC4)cc3)C2)cc1` [Example 2.28] showed a half-maximal inhibitory concentration (IC50) of 105 nM. As for `C[C@H](NC(=O)C(F)(F)F)c1ccc(O[C@@H]2CCN(c3ccc(OCC4CC4)cc3)C2)cc1` [Example 6, N—((S)-1-(4-((R)-1-(4-(Cyclopropylmethoxy)phenyl)pyrrolidin-3-yloxy)phenyl)-ethyl)-2,2,2-trifluoroacetamide], the IC50 came to 39 nM. The same measure for `CC(=O)N[C@@H](C)c1ccc(OC2CCN(c3ccc(OC4CC4)cc3F)C2)cc1` (stereo partly drawn) [Example 1.40]: 147 nM. `CC(=O)N[C@@H](C)c1ccc(OC2CCN(c3ccc(OCC4CC4)cc3C)C2)cc1` (stereo partly drawn) [Example 1.84] registered an IC50 of 69 nM. The same measure for `CC(=O)N[C@@H](C)c1ccc(OC2CCN(c3ccc4c(c3)OCCCO4)C2)cc1` (stereo partly drawn) [Example 1.23]: 84 nM; for `C[C@H](NC(=O)N1CCC1)c1ccc(OC2CCN(c3ccc(OCC4CC4)cc3)C2)cc1` (stereo partly drawn) [Example 3.3]: 1270 nM. `CC(=O)N[C@@H](C)c1ccc(OC2CCN(c3cccc(C(F)(F)F)c3)C2)cc1` (stereo partly drawn) [Example 1.27] returned an IC50 of 110 nM. The same measure for `C[C@H](NC(=O)N(C)Cc1ccncn1)c1ccc(OC2CCN(c3ccc(OCC4CC4)cc3)C2)cc1` (stereo partly drawn) [Example 3.6]: 504 nM.
